Experimental data taken from US20250136595A1, “ACYLATED HETEROCYCLIC QUINAZOLINE DERIVATIVES AS INHIBITORS OF ERBB2” (Enliven Inc., priority 2022, published 2025).

Columns and labels:
[1] = molecular target: T1, phosphorylated EGFR (pEGFR) (Homo sapiens, UniProt P00533); assay: Detection of phosphorylated EGFR (pEGFR) in EGF-stimulated A431 cells (AlphaLISA); type: cell-based; conditions: A431 cells (10% FBS), 4 hours incubation, EGF 30 ng/mL for 10 minutes
T1 construct: performed to measure phosphorylated EGFR levels using A431 cells; endogenous in cells; host or cells: A431
T1 sequence (P00533 25-1210): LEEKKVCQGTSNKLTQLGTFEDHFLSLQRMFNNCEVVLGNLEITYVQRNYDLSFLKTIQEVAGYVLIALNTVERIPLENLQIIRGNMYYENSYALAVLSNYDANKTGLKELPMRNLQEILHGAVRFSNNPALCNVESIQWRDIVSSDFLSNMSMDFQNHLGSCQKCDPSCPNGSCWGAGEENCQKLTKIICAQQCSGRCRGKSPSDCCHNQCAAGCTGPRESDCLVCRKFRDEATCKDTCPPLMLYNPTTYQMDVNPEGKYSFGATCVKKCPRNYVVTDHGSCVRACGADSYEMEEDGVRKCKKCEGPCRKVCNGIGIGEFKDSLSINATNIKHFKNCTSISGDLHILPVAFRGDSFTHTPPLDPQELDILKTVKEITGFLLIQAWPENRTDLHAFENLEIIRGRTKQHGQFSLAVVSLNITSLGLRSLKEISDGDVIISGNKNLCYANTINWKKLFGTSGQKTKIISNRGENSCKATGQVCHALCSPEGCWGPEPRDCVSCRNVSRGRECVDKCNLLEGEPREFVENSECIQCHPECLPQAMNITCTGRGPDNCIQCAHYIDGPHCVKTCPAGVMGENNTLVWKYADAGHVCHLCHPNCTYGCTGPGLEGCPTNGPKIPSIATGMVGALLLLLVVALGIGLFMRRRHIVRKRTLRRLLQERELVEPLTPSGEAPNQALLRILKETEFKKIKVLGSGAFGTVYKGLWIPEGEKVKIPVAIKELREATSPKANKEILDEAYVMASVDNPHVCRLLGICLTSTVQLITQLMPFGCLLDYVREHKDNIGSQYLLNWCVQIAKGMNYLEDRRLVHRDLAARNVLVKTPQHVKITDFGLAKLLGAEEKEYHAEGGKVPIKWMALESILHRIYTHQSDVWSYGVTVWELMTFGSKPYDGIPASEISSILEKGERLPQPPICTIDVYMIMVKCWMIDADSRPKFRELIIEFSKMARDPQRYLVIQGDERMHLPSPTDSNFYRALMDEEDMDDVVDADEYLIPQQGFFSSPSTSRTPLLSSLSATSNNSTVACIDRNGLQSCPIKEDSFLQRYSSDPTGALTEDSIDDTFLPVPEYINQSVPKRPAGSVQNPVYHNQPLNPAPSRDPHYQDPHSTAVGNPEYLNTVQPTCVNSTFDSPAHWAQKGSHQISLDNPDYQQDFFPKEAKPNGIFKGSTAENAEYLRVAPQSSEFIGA
How it was run: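 Cells in 10% FBS treated with compound 4 h at 37° C., then stimulated 10 min with 30 ng/mL EGF, lysed, and pEGFR measured by AlphaLISA. Inhibition normalized to DMSO and staurosporine controls; IC50 from four-parameter logistic fit.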

[2] = molecular target: T2, phosphorylated ERBB2 (pERBB2) (Homo sapiens, UniProt P04626); assay: Detection of phosphorylated ERBB2 (pERBB2) by ELISA in BT-474 cells; type: cell-based; conditions: four hour incubation with compound
T2 construct: endogenous in cells; host or cells: BT-474
T2 sequence (P04626 23-1255): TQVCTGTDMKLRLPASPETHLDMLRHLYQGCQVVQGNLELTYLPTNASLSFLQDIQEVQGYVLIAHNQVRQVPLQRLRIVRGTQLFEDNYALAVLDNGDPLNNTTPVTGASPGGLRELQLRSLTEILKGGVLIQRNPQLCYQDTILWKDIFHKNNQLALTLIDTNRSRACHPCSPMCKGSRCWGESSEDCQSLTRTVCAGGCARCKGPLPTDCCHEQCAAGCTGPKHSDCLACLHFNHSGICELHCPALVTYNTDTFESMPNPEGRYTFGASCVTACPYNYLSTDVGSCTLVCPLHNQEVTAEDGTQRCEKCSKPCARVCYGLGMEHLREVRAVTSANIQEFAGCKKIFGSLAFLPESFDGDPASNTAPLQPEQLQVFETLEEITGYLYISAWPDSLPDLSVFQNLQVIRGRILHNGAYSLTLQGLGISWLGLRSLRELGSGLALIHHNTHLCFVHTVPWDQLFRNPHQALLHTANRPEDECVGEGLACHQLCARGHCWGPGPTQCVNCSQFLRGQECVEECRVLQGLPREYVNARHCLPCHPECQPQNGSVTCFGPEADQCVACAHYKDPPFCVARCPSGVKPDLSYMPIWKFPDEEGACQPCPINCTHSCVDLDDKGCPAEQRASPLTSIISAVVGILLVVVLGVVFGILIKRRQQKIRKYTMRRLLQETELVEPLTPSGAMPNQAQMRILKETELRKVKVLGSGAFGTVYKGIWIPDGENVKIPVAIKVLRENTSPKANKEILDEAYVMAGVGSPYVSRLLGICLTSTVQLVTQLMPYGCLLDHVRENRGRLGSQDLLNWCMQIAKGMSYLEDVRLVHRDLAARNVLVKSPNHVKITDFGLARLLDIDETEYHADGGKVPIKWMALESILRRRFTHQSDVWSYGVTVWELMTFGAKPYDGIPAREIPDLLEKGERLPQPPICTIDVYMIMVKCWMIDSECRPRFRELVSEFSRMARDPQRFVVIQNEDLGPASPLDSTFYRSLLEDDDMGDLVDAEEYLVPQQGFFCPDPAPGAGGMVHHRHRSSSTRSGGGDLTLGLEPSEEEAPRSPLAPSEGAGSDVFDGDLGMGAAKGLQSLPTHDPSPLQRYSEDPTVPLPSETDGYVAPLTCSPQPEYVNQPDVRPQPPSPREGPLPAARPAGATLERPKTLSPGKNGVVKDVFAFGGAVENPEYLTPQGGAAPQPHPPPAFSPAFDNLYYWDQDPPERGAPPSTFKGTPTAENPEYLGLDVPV
How it was run: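 BT-474 cells treated 4 h at 37 °C, 5% CO2 with four-fold dilutions (10 μM to 0.01 nM final). Lysates analysed by ELISA for pERBB2, TMB read at OD 450 nm. % relative activity normalised to no-cell (low) and 0.1% DMSO-treated (high) controls.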

Ba/F3 ERBB2 YVMA = Ba/F3 ERBB2 YVMA (Homo sapiens, UniProt P04626, DUP772-775, cells depend on it); assay: Cell viability assay (CellTiter Glo) in Ba/F3 cells engineered to express ERBB2 YVMA; type: cell-based, mouse; conditions: Ba/F3 cells expressing human ERBB2 YVMA mutant, 72 hours, % viability, read-out: Ba/F3 ERBB2 YVMA IC50
Sequence of Ba/F3 ERBB2 YVMA (P04626 with tags, fused parts or gaps DUP772-775): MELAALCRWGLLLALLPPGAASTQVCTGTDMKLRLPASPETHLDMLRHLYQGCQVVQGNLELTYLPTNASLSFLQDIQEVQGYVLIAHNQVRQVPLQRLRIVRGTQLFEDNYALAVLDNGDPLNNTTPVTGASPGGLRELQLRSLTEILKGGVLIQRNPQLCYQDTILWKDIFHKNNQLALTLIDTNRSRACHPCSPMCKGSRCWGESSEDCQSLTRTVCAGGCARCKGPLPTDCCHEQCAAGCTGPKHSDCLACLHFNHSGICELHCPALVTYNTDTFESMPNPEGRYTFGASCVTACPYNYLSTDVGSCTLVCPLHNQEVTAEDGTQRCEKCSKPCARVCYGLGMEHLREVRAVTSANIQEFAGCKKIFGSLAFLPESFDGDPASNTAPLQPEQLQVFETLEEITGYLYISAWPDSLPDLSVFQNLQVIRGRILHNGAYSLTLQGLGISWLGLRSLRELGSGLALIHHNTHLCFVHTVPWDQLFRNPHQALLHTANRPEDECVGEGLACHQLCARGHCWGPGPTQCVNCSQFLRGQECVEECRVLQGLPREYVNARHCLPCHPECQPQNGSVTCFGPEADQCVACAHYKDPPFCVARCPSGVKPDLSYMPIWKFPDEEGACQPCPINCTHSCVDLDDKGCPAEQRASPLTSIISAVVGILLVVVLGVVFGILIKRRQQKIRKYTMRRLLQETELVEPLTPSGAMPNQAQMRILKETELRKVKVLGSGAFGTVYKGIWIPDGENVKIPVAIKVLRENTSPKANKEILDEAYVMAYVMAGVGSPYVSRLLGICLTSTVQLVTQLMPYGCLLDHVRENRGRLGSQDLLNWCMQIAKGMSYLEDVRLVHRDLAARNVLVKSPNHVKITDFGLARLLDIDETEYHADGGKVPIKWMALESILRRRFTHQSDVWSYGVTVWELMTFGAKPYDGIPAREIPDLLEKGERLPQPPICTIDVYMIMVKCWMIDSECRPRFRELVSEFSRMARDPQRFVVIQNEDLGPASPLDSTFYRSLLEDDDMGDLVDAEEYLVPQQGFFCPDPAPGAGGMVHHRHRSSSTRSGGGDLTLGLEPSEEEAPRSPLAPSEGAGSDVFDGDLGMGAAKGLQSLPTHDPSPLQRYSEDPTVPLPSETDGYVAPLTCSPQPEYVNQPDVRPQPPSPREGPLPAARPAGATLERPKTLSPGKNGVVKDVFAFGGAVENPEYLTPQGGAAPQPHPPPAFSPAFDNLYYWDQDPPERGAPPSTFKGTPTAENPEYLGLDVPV
How it was run: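 IL-3-independent mouse Ba/F3 line stably transduced with human ERBB2 YVMA, seeded at 3000 cells/well, exposed to serially diluted compound (≤0.1% DMSO) for 72 h at 37° C. ATP read by CellTiter Glo luminescence, normalised to DMSO and media-only controls; sigmoidal nonlinear regression fit.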

SMILES: C=CC(=O)N1CCN(c2cc3c(Nc4ccc(Cc5ccc6c(c5)ncn6C)c(C)c4)ncnc3cn2)CC1 [Compound 83, 1-{4-[4-({3-methyl-4-[(1-methyl-1,3-benzodiazol-5-yl)methyl]phenyl}amino)pyrido[3,4-d]pyrimidin-6-yl]piperazin-1-yl}prop-2-en-1-one; formic acid]
- IC50 [1]: 1390 nM
- IC50 [2]: 25.5 nM
- GI50 (Ba/F3 ERBB2 YVMA): 12.5 nM

SMILES: C=CC(=O)N1CCN(c2ncc3ncnc(Nc4ccc(Oc5ccn6ncnc6c5)c(C)c4)c3n2)C[C@H]1C [Compound 56, 1-[(2R)-2-methyl-4-{8-[(3-methyl-4-{[1,2,4]triazolo[1,5-a]pyridin-7-yloxy}phenyl)amino]pyrimido[5,4-d][1,3]diazin-2-yl}piperazin-1-yl]prop-2-en-1-one]
- IC50 [1]: 1050 nM
- IC50 [2]: 14.8 nM
- GI50 (Ba/F3 ERBB2 YVMA): 7.86 nM

SMILES: C=CC(=O)N1CCN(c2ccc3ncnc(Nc4ccc(Oc5ccn6ncnc6c5)c(C)c4)c3c2)CC1 [Compound 7, 1-(4-{4-[(3-methyl-4-{[1,2,4]triazolo[1,5-a]pyridin-7-yloxy}phenyl)amino]quinazolin-6-yl}piperazin-1-yl)prop-2-en-1-one]
- IC50 [1]: 694 nM
- IC50 [2]: 13 nM
- GI50 (Ba/F3 ERBB2 YVMA): 8.65 nM

SMILES: C=CC(=O)N1CCN(c2ncc3ncnc(Nc4ccc(Oc5ccn6ncnc6c5)c(C)c4)c3n2)CC1 [Compound 45, 1-(4-{8-[(3-methyl-4-{[1,2,4]triazolo[1,5-a]pyridin-7-yloxy}phenyl)amino]pyrimido[5,4-d][1,3]diazin-2-yl}piperazin-1-yl)prop-2-en-1-one]
- IC50 [1]: 667 nM
- IC50 [2]: 9.23 nM
- GI50 (Ba/F3 ERBB2 YVMA): 4.5 nM
